{
  "source": "patent US20030143608A1",
  "about": "“Drug response marker in beta-1 adrenergic receptor gene” (Myriad Genetics, Incorporated, priority 2001, published 2003)",
  "system": "patients with symptoms diagnosed as hypertension",
  "test": "Antihypertensive drug response by beta-1 adrenergic receptor A145G genotype in hypertensive patients",
  "format": "in vivo, human",
  "conditions": "for Average Change in Blood Pressure: Sardinian hypertensive patients, atenolol 100 mg b.i.d., HCTZ 25 mg u.i.d. or fosinopril 20 mg u.i.d. for 2 months, change from baseline",
  "experimental": "For our study, three drugs—fosinopril, atenolol, and hydrochlorothiazide—were administered to patients with symptoms diagnosed as hypertension (a diastolic blood pressure above 89 mmHg and a systolic blood pressure above 139 mmHg). Since essential hypertension is a complex multifactorial disease with an environmental component and a genetic interaction basis, we selected a […] patient sample from Sardinia, which ensured genetic homogeneity. Piazza, Science 260:1767-9 (1993). Patients were unrelated Sardinian from at least 2 generations. Approximately 75% of the patients were previously untreated for hypertension, whereas the remaining were absent from antihypertensive treatment for at least 6 months prior to testing, thus ensuring that modifications in blood pressure during the study were mostly due to the drug under study and not the spurious effects related to previous treatments.\nAfter a 2-month pre-treatment period, during which blood pressure was measured periodically, patients with blood pressure (as average of 3 measurements performed in standard conditions) still over 140/90 (n=494) where randomly assigned to one of the following drugs: atenolol 100 mg b.i.d., hydrochlorothiazide (HCTZ) 25 mg u.i.d. or fosinopril 20 mg u.i.d. for 2 months. After a treatment was begun, patient blood pressure, heart rate and body weight were assessed every 2 weeks, and values at +4 and +8 weeks tabulated and considered for analysis.\nGenomic DNA was extracted from the leukocytes of each individual using a genomic DNA extraction kit based on […]. Genomic DNA of the beta-1 adrenergic receptor gene was then amplified using standard PCR procedures. The PCR product was diluted 1:10 in EDTA 1 mM and then submitted for automated sequencing carried out with an Applied Biosystems Sequencer using dye primer chemistry.\nTo evaluate the association between each patient's genotype and the response of the individual to the respective drug, the change in blood pressure was analyzed from the baseline to the follow-up measurements at 4 and 8 weeks. A linear regression model was then used to adjust for the effect of baseline blood pressure levels and sex of the individual. The difference in average change of blood pressure between genotypes for each time interval was determined through analysis of covariance.",
  "key": {"[1]": {"conditions": "genotype AA (homozygous wild-type)"}, "[2]": {"conditions": "genotype GG (homozygous A145G variant)"}},
  "data": [
    {"smiles": "CC(C)NCC(O)COc1ccc(CC(N)=O)cc1", "note": "(stereo not shown) [Atenolol, atenolol]", "values": [
      {"measurement": "Average Change in Blood Pressure", "setting": "[1]", "result": "−17.3", "unit": "mmHg"},
      {"measurement": "Average Change in Blood Pressure", "setting": "genotype AG (heterozygous)", "result": "−17.9", "unit": "mmHg"},
      {"measurement": "Average Change in Blood Pressure", "setting": "[2]", "result": "−10.6", "unit": "mmHg"}
    ]},
    {"smiles": "CCC(=O)O[C@@H](O[P@](=O)(CCCCc1ccccc1)CC(=O)N1C[C@H](C2CCCCC2)C[C@H]1C(=O)O)C(C)C", "note": "[Fosinopril, fosinopril]", "values": [
      {"measurement": "Average Change in Blood Pressure", "setting": "[1]", "result": "−12.3", "unit": "mmHg"},
      {"measurement": "Average Change in Blood Pressure", "setting": "genotype AG (heterozygous)", "result": "−8.6", "unit": "mmHg"},
      {"measurement": "Average Change in Blood Pressure", "setting": "[2]", "result": "−23.0", "unit": "mmHg"}
    ]},
    {"smiles": "NS(=O)(=O)c1cc2c(cc1Cl)NCNS2(=O)=O", "note": "[Hydrochlorothiazide, hydrochlorothiazide]", "values": [
      {"measurement": "Average Change in Blood Pressure", "setting": "[1]", "result": "−10.2", "unit": "mmHg"},
      {"measurement": "Average Change in Blood Pressure", "setting": "genotype AG (heterozygous)", "result": "−12.9", "unit": "mmHg"},
      {"measurement": "Average Change in Blood Pressure", "setting": "[2]", "result": "−30.5", "unit": "mmHg"},
      {"measurement": "relative blood pressure response between drugs", "setting": "individuals homozygous for A145G (GG), analysis of covariance, adjusted for baseline blood pressure and sex", "result": "more likely (p=0.0055) to experience a significant decrease in blood pressure"}
    ]}
  ]
}
